The source of these data is patent US10544083B2, “GPBP inhibition using Q2 peptidomimetics” (FibroStatin, S.L., priority 2009, dated 2020).

The first assay concerns the target T1, yeast recombinant FLAG-GPBP (Homo sapiens, UniProt Q9Y5P4).
T1 construct: FLAG; made in house
T1 sequence (Q9Y5P4 1-624): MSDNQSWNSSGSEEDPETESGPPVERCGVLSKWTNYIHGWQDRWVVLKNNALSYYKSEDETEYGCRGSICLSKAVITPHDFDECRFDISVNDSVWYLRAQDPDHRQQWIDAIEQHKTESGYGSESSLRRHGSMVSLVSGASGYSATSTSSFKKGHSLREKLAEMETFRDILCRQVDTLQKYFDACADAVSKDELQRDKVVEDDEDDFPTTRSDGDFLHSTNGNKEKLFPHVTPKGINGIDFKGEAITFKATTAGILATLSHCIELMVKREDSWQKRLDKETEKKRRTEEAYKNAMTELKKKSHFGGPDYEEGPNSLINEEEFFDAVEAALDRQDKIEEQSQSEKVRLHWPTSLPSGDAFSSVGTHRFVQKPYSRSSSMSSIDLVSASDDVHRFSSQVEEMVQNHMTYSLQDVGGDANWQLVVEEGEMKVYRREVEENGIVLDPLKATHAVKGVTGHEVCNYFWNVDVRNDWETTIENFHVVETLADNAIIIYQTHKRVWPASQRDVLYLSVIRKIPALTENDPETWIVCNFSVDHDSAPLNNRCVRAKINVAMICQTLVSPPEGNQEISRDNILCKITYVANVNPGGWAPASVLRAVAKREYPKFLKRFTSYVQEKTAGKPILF
Briefly: FLAG-GPBP auto-phosphorylation assay. Format: biochemical. Conditions: 10 μM compound, 5 min at 30° C., autoradiography bands quantified, vehicle = 100; read-out: Relative kinase activity (% referred to vehicle). The text has this: Goodpasture antigen-binding protein (GPBP) is a non-conventional Ser/Thr kinase which targets and phosphorylates the non-collagenous (NC1) domain of α3 chain of human type IV collagen [α3(IV)NC1], known as Goodpasture antigen. GPBP expression has been associated with antibody-mediated glomerulonephritis, rheumatoid arthritis and drug-resistance cancer. We have reported that GPBP self-interacts, that aggregation and autophosphorylation regulate kinase activity, and that the Q2 peptide inhibits autophosphorylation and GPBP kinase activity (WO 00/50607). The GPBP kinase inhibitory activity of a number of terphenylic compounds mimicking Q2, a peptide representing a critical GPBP motif which is relevant for GPBP quaternary structure stabilization, have been tested on GPBP autophosphorylation ability The autophosphorylation ability of GPBP has been used to test the GPBP kinase inhibitor activity of several terphenylic compounds (Scheme 18) derived from the chemical structure of Q2 peptide, which in turn represents GPBP peptidic sequence relevant for self-interaction.
Two hundred nanograms of yeast recombinant FLAG-GPBP were subjected to phosphorylation assays in absence (vehicle) or presence of a 10 μM concentration of each of the indicated Q2-peptidomimetic compounds or an intermediate of synthesis used as negative control (C), during 5 min at 30° C. Reactions were subjected to SDS-PAGE, Western blot and autoradiography. The bands in the autoradiography were quantified using Image-Quant TL software. The kinase activity of GPBP in the presence of the indicated compounds was referred to the sample containing the vehicle, which was given a value of 100.
Yeast recombinant FLAG-GPBP production and purification were also performed. GPBP autophosphorylation assay times were limited to 10 min at 30° C.
Turning to `Cc1cccc(-c2ccc(-c3ccc(O)cc3CCC(=O)O)cc2CO)c1` [Compound 1a, 3-[4″-hydroxy-2′-(hydroxymethyl)-3-methyl-(1,1′;4′,1″)terphenyl-2″-yl]propionic acid], the activity at 10 µM is 34%.

For the compound `O=C(O)CCc1cc(O)ccc1-c1ccc(-c2cccc(C(F)(F)F)c2)c(CO)c1` [Compound 1b, 3-[4″-hydroxy-2′-(hydroxymethyl)-3-(trifluoromethyl)-(1,1′;4′,1″)terphenyl-2″-yl]propionic acid], the activity at 10 µM is 131%.

As for `O=C(O)CCc1cc(O)ccc1-c1ccc(-c2cccnc2)c(CO)c1` [Compound 1c, 3-[4-hydroxy-3′-(hydroxymethyl)-4′-(pyridin-3-yl)biphenyl-2-yl]propionic acid], the activity at 10 µM is 58%.

Take `Cc1cccc(-c2ccc(-c3ccc(O)cc3C(C)C)cc2CCC(=O)O)c1` [Compound 2a, 3-[4″-hydroxy-2″-isopropyl-3-methyl-(1,1′;4′,1″)terphenyl-2′-yl]propionic acid]: the activity at 10 µM is 90%.

For the compound `Cc1cccc(-c2ccc(-c3ccc(O)cc3CCC(=O)O)cc2C)c1` [Compound 12a, 3-[4″-hydroxy-2′,3-dimethyl-(1,1′;4′,1″)terphenyl-2″-yl]propionic acid], the activity at 10 µM worked out at 53%.

With `Cc1cc(-c2ccc(O)cc2CCC(=O)O)ccc1-c1cccc(C(F)(F)F)c1` [Compound 12b, 3-[4″-hydroxy-2′-methyl-3-(trifluoromethyl)-(1,1′;4′,1″)terphenyl-2″-yl]propionic acid], the activity at 10 µM worked out at 49%.

`Cc1cccc(-c2ccc(-c3ccc(O)cc3CCC(=O)O)cc2CF)c1` [Compound 15a, 3-[2′-(fluoromethyl)-4″-hydroxy-3-methyl-(1,1′;4′,1″)terphenyl-2″-yl]propionic acid]: the activity at 10 µM turned out to be 79%.

For `O=C(O)CCc1cc(O)ccc1-c1ccc(-c2cccc(C(F)(F)F)c2)c(CF)c1` [Compound 15b, 3-[2′-(fluoromethyl)-4″-hydroxy-3-(trifluoromethyl)-(1,1′;4′,1″)terphenyl-2″-yl]propionic acid], the activity at 10 µM came to 21%.

With `Cc1cccc(-c2ccc(-c3ccc(O)cc3CCC(=O)O)cc2C(F)F)c1` [Compound 20a, 3-[2′-(difluoromethyl)-4″-hydroxy-3-methyl-(1,1′;4′,1″)terphenyl-2″-yl]propionic acid], the activity at 10 µM came to 61%.

With `O=C(O)CCc1cc(O)ccc1-c1ccc(-c2cccc(C(F)(F)F)c2)c(C(F)F)c1` [Compound 20b, 3-[2′-(difluoromethyl)-4″-hydroxy-3-(trifluoromethyl)-(1,1′;4′,1″)terphenyl-2″-yl]propionic acid], the activity at 10 µM turned out to be 77%.

For `COc1ccc(-c2ccc(-c3cccc(C)c3)c(CO)c2)c(CCC(=O)O)c1` [Compound 22a, 3-[2′-(hydroxymethyl)-4″-methoxy-3-methyl-(1,1′;4′,1″)terphenyl-2″-yl]propionic acid], the activity at 10 µM worked out at 118%.

As to `COc1ccc(-c2ccc(-c3cccc(C)c3)c(C)c2)c(CCC(=O)O)c1` [Compound 22b, 3-[4″-methoxy-3,2′-dimethyl-(1,1′;4′,1″)terphenyl-2″-yl]propionic acid], the activity at 10 µM amounted to 44%.

Take `COc1ccc(-c2ccc(-c3cccc(C)c3)c(CF)c2)c(CCC(=O)O)c1` [Compound 22c, 3-[2′-(fluoromethyl)-4″-methoxy-3-methyl-(1,1′;4′,1″)terphenyl-2″-yl]propionic acid]: the activity at 10 µM is 123%.

As to `COc1ccc(-c2ccc(-c3cccc(C)c3)c(C(F)F)c2)c(CCC(=O)O)c1` [Compound 22d, 3-[2′-(difluoromethyl)-4″-methoxy-3-methyl-(1,1′;4′,1″)terphenyl-2″-yl]propionic acid], the activity at 10 µM was found to be 79%.

Regarding `COc1ccc(-c2ccc(-c3cccc(C(F)(F)F)c3)c(CO)c2)c(CCC(=O)O)c1` [Compound 22e, 3-[2′-(hydroxymethyl)-4″-methoxy-3-(trifluoromethyl)-(1,1′;4′,1″)terphenyl-2″-yl]propionic acid], the activity at 10 µM was found to be 129%.

Turning to `COc1ccc(-c2ccc(-c3cccc(C(F)(F)F)c3)c(C)c2)c(CCC(=O)O)c1` [Compound 22f, 3-[2′-methyl-4″-methoxy-3-(trifluoromethyl)-(1,1′;4′,1″)terphenyl-2″-yl]propionic acid], the activity at 10 µM stood at 41%.

As for `COc1ccc(-c2ccc(-c3cccc(C(F)(F)F)c3)c(CF)c2)c(CCC(=O)O)c1` [Compound 22g, 3-[2′-(fluoromethyl)-4″-methoxy-3-(trifluoromethyl)-(1,1′;4′,1″)terphenyl-2″-yl]propionic acid], the activity at 10 µM stood at 103%.

For `COc1ccc(-c2ccc(-c3cccc(C(F)(F)F)c3)c(C(F)F)c2)c(CCC(=O)O)c1` [Compound 22h, 3-[2′-(difluoromethyl)-4″-methoxy-3-(trifluoromethyl)-(1,1′;4′,1″)terphenyl-2″-yl]propionic acid], the activity at 10 µM is 49%.

With `COc1ccc(-c2ccc(-c3cccnc3)c(CO)c2)c(CCC(=O)O)c1` [Compound 22i, 3-[3′-(hydroxymethyl)-4-methoxy-4′-(pyridin-3-yl)biphenyl-2-yl]propionic acid], the activity at 10 µM was determined as 132%.

Regarding `COc1ccc(-c2ccc(-c3cccnc3)c(C)c2)c(CCC(=O)O)c1` [Compound 22j, 3-[4-methoxy-3′-methyl-4′-(pyridin-3-yl)biphenyl-2-yl]propionic acid], the activity at 10 µM was 50%.

In the case of `COc1ccc(-c2ccc(-c3cccnc3)c(CF)c2)c(CCC(=O)O)c1` [Compound 22k, 3-[3′-(fluoromethyl)-4-methoxy-4′-(pyridin-3-yl)biphenyl-2-yl]propionic acid], the activity at 10 µM worked out at 135%.

On to `COc1ccc(-c2ccc(-c3cccnc3)c(C(F)F)c2)c(CCC(=O)O)c1` [Compound 22l, 3-[3′-(difluoromethyl)-4-methoxy-4′-(pyridin-3-yl)biphenyl-2-yl]propionic acid], for which the activity at 10 µM is 136%.

For the compound `CCCOc1ccc(-c2ccc(-c3cccc(C)c3)c(C)c2)c(CCC(=O)O)c1` [Compound 24a, 3-[3,2′-dimethyl-4″-propoxy-(1,1′;4′,1″)terphenyl-2″-yl]propionic acid], the activity at 10 µM came out at 73%.

As for `Cc1cccc(-c2ccc(-c3ccc(OCC(=O)O)cc3CCC(=O)O)cc2C)c1` [Compound 24b, 3-[4″-(carboxymethoxy)-3,2′-dimethyl-(1,1′;4,1″)terphenyl-2″-yl]propionic acid], the activity at 10 µM was determined as 64%.

Consider `CCCOc1ccc(-c2ccc(-c3cccc(C(F)(F)F)c3)c(C)c2)c(CCC(=O)O)c1` [Compound 24c, 3-[2′-methyl-4″-propoxy-3-(trifluoromethyl)-(1,1′;4′,1″)terphenyl-2″-yl]propionic acid], for which the activity at 10 µM stood at 36%.

Take `COc1ccc(-c2ccc(-c3ccc(OC)c(C)c3)c(C)c2)c(CCC(=O)O)c1` [Compound 32, 3-[4,4″-dimethoxy-3,2′-dimethyl-(1,1′;4′,1″)terphenyl-2″-yl]propionic acid]: the activity at 10 µM came to 28%.

A further assay deals with T2, GPBP (Homo sapiens, UniProt Q9Y5P4).
T2 sequence (Q9Y5P4 1-624): T1 sequence (Q9Y5P4 1-624)
Assay: not given
The following applies: see U.S. Pat. No. 7,326,768; cited from earlier work.
For “LATLSHCIELMVKR [Compound Q2, synthetic peptide representing the five-residue SHCIE motif of GPBP and flanking regions]”, the “inhibition of GPBP autophosphorylation” value is listed as “efficiently inhibited GPBP autophosphorylation”.

The target in another assay is T2, GPBP.
Assay: not given
The following applies: see U.S. Pat. No. 7,326,768; cited from earlier work. The source holds these as a separate data set.
In the case of “LATLSHCIELMVKR [Compound Q2, synthetic peptide representing the five-residue SHCIE motif of GPBP and flanking regions]”, the “α3(IV)NC1 conformer production by GPBP” value is listed as “reduce α3(IV)NC1 conformer production”.
